Measurements from patent US20220128542A1, “TREATMENT EFFICIENCY EVALUATION” (TX MEDIC AB, priority 2019, published 2022).

Tested on: brain of rats subjected to severe traumatic brain injury (sTBI)
Assay: Ingenuity pathway analysis of differentially regulated genes after sTBI (canonical pathways, diseases and molecular functions; Example 4)
Design: species or system rat
Experimental: Pathway analysis of the differentially regulated genes was carried out using the Ingenuity pathway analysis package. The analysis was performed with special reference to pathways and molecular processes and diseases associated with neurodegenerative disease, including dementia, Alzheimer's disease, ALS, TBI and stroke, and with scarring and fibrosis, including glaucoma and normal pressure hydrocephalus (NPH) after subarachnoid haemorrhage.

[1] = TBI + 5 mg/kg LMW-DS, 7 days after TBI
[2] = TBI + 15 mg/kg LMW-DS, 2 days after TBI
[3] = TBI + 15 mg/kg LMW-DS, 7 days after TBI, relative to control
[4] = TBI + 15 mg/kg LMW-DS, 7 days after TBI
[5] = TBI + 15 mg/kg repeat dose LMW-DS, 7 days after TBI
[6] = TBI + 15 mg/kg repeated dose LMW-DS, 7 days after TBI, relative to control
[7] = TBI + 15 mg/kg repeated dose LMW-DS, 7 days after TBI

For sodium salt of dextran sulfate [LMW-DS], the “Ingenuity canonical pathway: Acute Phase Response Signaling” value [1] was “Activated”, the “Ingenuity canonical pathway: Adrenomedullin signaling pathway” value [1] was “Inhibited” and the “Ingenuity canonical pathway: Cardiac Hypertrophy Signaling” value [1] was “Activated”. The “Ingenuity canonical pathway: Colorectal Cancer Metastasis Signaling” value [1] was “Inhibited”, the “Ingenuity canonical pathway: Dendritic Cell Maturation” value [1] was “Activated” and the “Ingenuity canonical pathway: ERK5 Signaling” value [1] was “Inhibited”. For the same substance, the “Ingenuity canonical pathway: ERK/MAPK Signaling” value [1] was “Activated”, the “Ingenuity canonical pathway: Endothelin-1 Signaling” value [1] was “Activated” and the “Ingenuity canonical pathway: Fcγ Receptor-mediated Phagocytosis in Macrophages and Monocytes” value [1] was “Activated”. For the same substance, the “Ingenuity canonical pathway: GNRH Signaling” value [1] was “Activated”, the “Ingenuity canonical pathway: HMGB1 Signaling” value [1] was “Activated” and the “Ingenuity canonical pathway: IL-1 Signaling” value [1] was “Activated”. The “Ingenuity canonical pathway: IL-6 Signaling” value [1] was “Activated”, the “Ingenuity canonical pathway: IL-8 Signaling” value [1] was “Activated” and the “Ingenuity canonical pathway: ILK Signaling” value [1] was “Activated”. The “Ingenuity canonical pathway: Leukocyte Extravasation Signaling” value [1] was “Activated”, the “Ingenuity canonical pathway: Neuroinflammation Signaling Pathway” value [1] was “Activated” and the “Ingenuity canonical pathway: Osteoarthritis Pathway” value [1] was “Inhibited”. For the same substance, the “Ingenuity canonical pathway: PI3K Signaling in B Lymphocytes” value [1] was “Activated”, the “Ingenuity canonical pathway: PKCO Signaling in T Lymphocytes” value [1] was “Activated” and the “Ingenuity canonical pathway: PPAR Signaling” value [1] was “Inhibited”. The “Ingenuity canonical pathway: Phospholipase C Signaling” value [1] was “Activated”, the “Ingenuity canonical pathway: Production of Nitric Oxide and Reactive Oxygen Species in Macrophages” value [1] was “Activated” and the “Ingenuity canonical pathway: Protein Kinase A Signaling” value [1] was “Inhibited”. The “Ingenuity canonical pathway: Role of NFAT in Regulation of the Immune Response” value [1] was “Activated”, the “Ingenuity canonical pathway: Signaling by Rho Family GTPases” value [1] was “Activated” and the “Ingenuity canonical pathway: Synaptic Long Term Depression” value [1] was “Activated”. For the same substance, the “Ingenuity canonical pathway: Wnt/β-catenin Signaling” value [1] was “Inhibited”, the “Ingenuity canonical pathway: cAMP-mediated signaling” value [1] was “Inhibited” and the “Ingenuity canonical pathway: mTOR Signaling” value [1] was “Activated”. For the same substance, the “Effect on diseases or functions annotation: Apoptosis” value [2] was “Inhibited”, the “Effect on diseases or functions annotation: Apoptosis of tumor cell lines” value [2] was “Activated” and the “Effect on diseases or functions annotation: Behavior” value [2] was “Inhibited”. The “Effect on diseases or functions annotation: Cell death” value [2] was “Inhibited”, the “Effect on diseases or functions annotation: Necrosis” value [2] was “Inhibited” and the “Effect on diseases or functions annotation: Quantity of blood cells” value [2] was “Inhibited”. For the same substance, the “Effect on diseases or functions annotation: Quantity of cells” value [2] was “Inhibited”, the “Effect on diseases or functions annotation: Quantity of lymphocytes” value [2] was “Inhibited” and the “z score, Ingenuity canonical pathway: Endothelin-1 Signaling” value [3] was 1. The “z score, Ingenuity canonical pathway: Phospholipase C Signaling” value [3] was 2, the “z score, Ingenuity canonical pathway: cAMP-mediated signaling” value [3] was 1 and the “Diseases or functions annotation: Abdominal neoplasm” value [4] was “Inhibited”. For the same substance, the “Diseases or functions annotation: Apoptosis” value [4] was “Inhibited”, the “Diseases or functions annotation: Apoptosis of tumor cell lines” value [4] was “Activated” and the “Diseases or functions annotation: Cancer” value [4] was “Activated”. For the same substance, the “Diseases or functions annotation: Carcinoma” value [4] was “Activated”, the “Diseases or functions annotation: Cell death” value [4] was “Inhibited” and the “Diseases or functions annotation: Cell death of tumor cell lines” value [4] was “Activated”. For the same substance, the “Diseases or functions annotation: Cell movement of myeloid cells” value [4] was “Activated”, the “Diseases or functions annotation: Development of carcinoma” value [4] was “Activated” and the “Diseases or functions annotation: Development of connective tissue cells” value [4] was “Activated”. For the same substance, the “Diseases or functions annotation: Development of malignant tumor” value [4] was “Inhibited”, the “Diseases or functions annotation: Differentiation of bone cells” value [4] was “Activated” and the “Diseases or functions annotation: Epithelial neoplasm” value [4] was “Activated”. The “Diseases or functions annotation: Extracranial solid tumor” value [4] was “Activated”, the “Diseases or functions annotation: Frequency of tumor” value [4] was “Inhibited” and the “Diseases or functions annotation: Genitourinary tumor” value [4] was “Activated”. The “Diseases or functions annotation: Incidence of tumor” value [4] was “Inhibited”, the “Diseases or functions annotation: Leukocyte migration” value [4] was “Activated” and the “Diseases or functions annotation: Necrosis” value [4] was “Activated”. For the same substance, the “Diseases or functions annotation: Non-melanoma solid tumor” value [4] was “Activated”, the “Diseases or functions annotation: Quantity of cells” value [4] was “Activated” and the “Diseases or functions annotation: Solid tumor” value [4] was “Activated”. The “Diseases or functions annotation: Transcription” value [4] was “Activated”, the “Diseases or functions annotation: Transcription of RNA” value [4] was “Activated” and the “Diseases or functions annotation: Tumorigenesis of epithelial neoplasm” value [4] was “Activated”. For the same substance, the “Diseases or functions annotation: Tumorigenesis of tissue” value [4] was “Activated”, the “Ingenuity canonical pathway: Endothelin-1 Signaling” value [4] was “Activated” and the “Ingenuity canonical pathway: Phospholipase C Signaling” value [4] was “Activated”. For the same substance, the “Ingenuity canonical pathway: cAMP-mediated signaling” value [4] was “Activated”, the “Diseases or functions annotation: Abdominal cancer” value [5] was “Inhibited” and the “Diseases or functions annotation: Abdominal neoplasm” value [5] was “Inhibited”. The “Diseases or functions annotation: Adenocarcinoma” value [5] was “Inhibited”, the “Diseases or functions annotation: Branching of cells” value [5] was “Activated” and the “Diseases or functions annotation: Carcinoma” value [5] was “Inhibited”. For the same substance, the “Diseases or functions annotation: Cell movement” value [5] was “Activated”, the “Diseases or functions annotation: Cell-cell contact” value [5] was “Activated” and the “Diseases or functions annotation: Concentration of hormone” value [5] was “Activated”. The “Diseases or functions annotation: Concentration of lipid” value [5] was “Inhibited”, the “Diseases or functions annotation: Dendritic growth/branching” value [5] was “Inhibited” and the “Diseases or functions annotation: Development of connective tissue cells” value [5] was “Inhibited”. The “Diseases or functions annotation: Development of gap junctions” value [5] was “Activated”, the “Diseases or functions annotation: Development of neurons” value [5] was “Activated” and the “Diseases or functions annotation: Developmental process of synapse” value [5] was “Activated”. The “Diseases or functions annotation: Differentiation of bone cells” value [5] was “Inhibited”, the “Diseases or functions annotation: Differentiation of connective tissue cells” value [5] was “Inhibited” and the “Diseases or functions annotation: Digestive organ tumor” value [5] was “Inhibited”. The “Diseases or functions annotation: Digestive system cancer” value [5] was “Inhibited”, the “Diseases or functions annotation: Epithelial neoplasm” value [5] was “Inhibited” and the “Diseases or functions annotation: Extracranial solid tumor” value [5] was “Activated”. For the same substance, the “Diseases or functions annotation: Formation of cellular protrusions” value [5] was “Activated”, the “Diseases or functions annotation: Formation of intercellular junctions” value [5] was “Activated” and the “Diseases or functions annotation: Gastrointestinal tumor” value [5] was “Inhibited”. The “Diseases or functions annotation: Hematologic cancer” value [5] was “Inhibited”, the “Diseases or functions annotation: Hematopoietic neoplasm” value [5] was “Inhibited” and the “Diseases or functions annotation: Learning” value [5] was “Activated”. For the same substance, the “Diseases or functions annotation: Microtubule dynamics” value [5] was “Activated”, the “Diseases or functions annotation: Migration of cells” value [5] was “Activated” and the “Diseases or functions annotation: Morphogenesis of neurons” value [5] was “Activated”. For the same substance, the “Diseases or functions annotation: Neurotransmission” value [5] was “Activated”, the “Diseases or functions annotation: Non-hematological solid tumor” value [5] was “Inhibited” and the “Diseases or functions annotation: Non-melanoma solid tumor” value [5] was “Inhibited”. For the same substance, the “Diseases or functions annotation: Nonhematologic malignant neoplasm” value [5] was “Inhibited”, the “Diseases or functions annotation: Obesity” value [5] was “Activated” and the “Diseases or functions annotation: Organization of cytoplasm” value [5] was “Activated”. For the same substance, the “Diseases or functions annotation: Organization of cytoskeleton” value [5] was “Activated”, the “Diseases or functions annotation: Quantity of Ca^2+” value [5] was “Activated” and the “Diseases or functions annotation: Quantity of carbohydrate” value [5] was “Inhibited”. For the same substance, the “Diseases or functions annotation: Quantity of cells” value [5] was “Activated”, the “Diseases or functions annotation: Seizure disorder” value [5] was “Activated” and the “Diseases or functions annotation: Size of body” value [5] was “Activated”. The “Diseases or functions annotation: Skin lesion” value [5] was “Activated”, the “Diseases or functions annotation: Transport of ion” value [5] was “Activated” and the “Diseases or functions annotation: Transport of metal” value [5] was “Activated”. The “Diseases or functions annotation: Transport of molecule” value [5] was “Activated”, the “Diseases or functions annotation: Tumorigenesis of tissue” value [5] was “Inhibited” and the “z score, Ingenuity canonical pathway: 3-phosphoinositide Degradation” value [6] was 2. The “z score, Ingenuity canonical pathway: Acute Phase Response Signaling” value [6] was −0.447, the “z score, Ingenuity canonical pathway: Adrenomedullin signaling pathway” value [6] was −0.378 and the “z score, Ingenuity canonical pathway: B Cell Receptor Signaling” value [6] was −0.447. For the same substance, the “z score, Ingenuity canonical pathway: Ephrin Receptor Signaling” value [6] was 2.236, the “z score, Ingenuity canonical pathway: Fc Epsilon RI Signaling” value [6] was −1 and the “z score, Ingenuity canonical pathway: G Beta Gamma Signaling” value [6] was 2.236. For the same substance, the “z score, Ingenuity canonical pathway: NF-κB Signaling” value [6] was 0.447, the “z score, Ingenuity canonical pathway: Opioid Signaling Pathway” value [6] was 0.816 and the “z score, Ingenuity canonical pathway: Role of NFAT in Cardiac Hypertrophy” value [6] was 0.447. For the same substance, the “z score, Ingenuity canonical pathway: Role of NFAT in Regulation of the Immune Response” value [6] was 2.236, the “z score, Ingenuity canonical pathway: Signaling by Rho Family GTPases” value [6] was 1 and the “z score, Ingenuity canonical pathway: Superpathway of Inositol Phosphate Compounds” value [6] was 2. The “z score, Ingenuity canonical pathway: Synaptic Long Term Depression” value [6] was 1.342, the “Ingenuity canonical pathway: 3-phosphoinositide Degradation” value [7] was “Activated” and the “Ingenuity canonical pathway: Acute Phase Response Signaling” value [7] was “Inhibited”. For the same substance, the “Ingenuity canonical pathway: Adrenomedullin signaling pathway” value [7] was “Inhibited”, the “Ingenuity canonical pathway: B Cell Receptor Signaling” value [7] was “Inhibited” and the “Ingenuity canonical pathway: Ephrin Receptor Signaling” value [7] was “Activated”. For the same substance, the “Ingenuity canonical pathway: Fc Epsilon RI Signaling” value [7] was “Inhibited”, the “Ingenuity canonical pathway: G Beta Gamma Signaling” value [7] was “Activated” and the “Ingenuity canonical pathway: NF-κB Signaling” value [7] was “Activated”. The “Ingenuity canonical pathway: Opioid Signaling Pathway” value [7] was “Activated”, the “Ingenuity canonical pathway: Role of NFAT in Cardiac Hypertrophy” value [7] was “Activated” and the “Ingenuity canonical pathway: Role of NFAT in Regulation of the Immune Response” value [7] was “Activated”. For the same substance, the “Ingenuity canonical pathway: Signaling by Rho Family GTPases” value [7] was “Activated”, the “Ingenuity canonical pathway: Superpathway of Inositol Phosphate Compounds” value [7] was “Activated” and the “Ingenuity canonical pathway: Synaptic Long Term Depression” value [7] was “Activated”.
